How the values were obtained:
[1] = DPPH radical scavenger test (acellular); details: 30 minutes
Text: Study of the radical scavenger activity of the hydroxytyrosol dihydrosinapate of the invention of formula (IIa) and of the prior-art ferulic acid derivative in an acellular in vitro model, using DPPH.
1,1-Diphenyl-2-picrylhydrazyl, owing to its paramagnetic structure, is able to accept an electron or a hydrogen radical in order to become a stable diamagnetic molecule.
The addition of a compound which provides electrons gives rise to decoloring of the 1,1-diphenyl-2-picrylhydrazyl in a manner proportional to the number of electrons accepted by the radical, and this decoloration can be monitored by measuring the absorbance at 530 nm (OD530).
[…] At the end of the incubation, the radical scavenger activity of the compound under test is evaluated by measuring the absorbance of the solution at 530 nm.
The results are presented as % inhibition of the DPPH radical, in Table 3a).
The radical scavenger activity of the test product is calculated as a percentage, according to the following formula:
100−((OD530 in the presence of the compound under test/OD530 in the absence of compound)×100)

[2] = tested on: keratinocytes from the A431 line; test: Antiinflammatory activity: release of E2 prostaglandins by UVB-irradiated keratinocytes (ELISA); type: cell-based; details: A431 keratinocytes, 30 μM, UV B 30 mJ/cm2, untreated irradiated control = 100%
Protocol: Study of the antiinflammatory activity of the hydroxytyrosol dihydrosinapate of the invention of formula (IIa), by measurement of the inhibition of release of E2 prostaglandins by keratinocytes under the effect of UVB.
The keratinocytes from the A431 line are cultured in an appropriate medium at 37° C. for 72 hours under 5% CO2. The culture medium is then withdrawn and replaced with the medium containing the products under test, and also the positive and negative controls. The cells are subsequently irradiated with UV B at 30 mJ/cm2. The cells are incubated for an extra 24 hours at 37° C. under 5% CO2. The cell supernatants are subsequently recovered, and the E2 prostaglandins (PGE2) released are quantified by an ELISA assay.
An amount of 100 μL of each sample, control or PGE2 standard is transferred to the wells of a 96-well plate, which are coated with antibodies directed against rat immunoglobulin G (IgG). Then an amount of 25 μL of PGE2-peroxidase conjugate is added to each well, followed by an amount of 25 μL of anti-PGE2 monoclonal antibody. The plate is incubated at 4° C. overnight. The wells are then rinsed and an amount of 100 μL of peroxidase substrate is added. After 15 minutes of incubation at ambient temperature, the optical density is read off at 450 nm. The amount of prostaglandin E2 released after irradiation is deduced from a commercial PGE2 standard range from 0 to 400 pg/mL of PGE2.
The negative control, represented by the cells which were not treated with samples and which underwent irradiation by UV B, gave rise to 100% release of PGE2. The positive experimental control is aspirin, which at 0.03% gave rise to 5%+/−2% release of PGE2.

[3] = TBARS test, lipid peroxidation of UVB-irradiated liposomal suspension; details: UVB 2 hours
Protocol: Study of the radical scavenger activity of the hydroxytyrosol dihydrosinapate of the invention of formula (IIa) and of the prior-art ferulic acid derivative by the TBARS test.
Two identical 96-well plates are produced according to a defined plate plan. 50 μL of a sample mixture prepared by diluting a solution of a test compound or of a negative control (vehicle medium without test compound) or of a positive control (D-L-alpha-tocopherol) to 1/10 in a liposomal suspension are distributed per well, in quadruplicate. One of the two plates is irradiated with UVB for 2 hours. The other plate, serving as a control, is incubated in the absence of light and at ambient temperature for 2 hours.
At the end of irradiation, an amount of 100 μL of 20% trichloroacetic acid solution was added per well, followed by an amount of 34 μL of 1% thiobarbituric acid solution. The plates are then incubated at 105° C. for 25 minutes.
The contents of each well are centrifuged at 5700 rpm for 5 minutes, and then an amount of 100 μL of supernatant was deposited in new plates, according to the same plan, and the absorbance was read off at 530 nm.
The positive experimental control was D-L-alpha-tocopherol, at a concentration of 1%, for which a percentage inhibition of 80% was obtained.

[4] = tested on: keratinocytes; test: Cytotoxicity, MTT cell viability on keratinocytes; type: cell-based; details: for Percentage cell viability, Mean: MTT
Protocol: Study of cell viability following application of the hydroxytyrosol dihydrosinapate of the invention of formula (IIa) to keratinocytes or melanocytes.
The cells (keratinocytes or melanocytes) were cultured in a 96-well plate at 37° C. under 5% CO2 in an appropriate medium until confluence. The medium was withdrawn and then an amount of 200 μL of a 0.5 mg/mL MTT solution was added. The plates were then incubated at 37° C. for 3 hours, after which the MTT solution was withdrawn from each well and replaced with DMSO. The plates were agitated for 15 minutes, and the optical density was measured at 550 nm.
The negative cytotoxicity control is PBS. The positive cytotoxicity control is 0.25% SDS. 0.1% DMSO was used as control.

[5] = tested on: melanocytes of murine line B16; test: Inhibition of melanin production in B16 melanocytes stimulated with an α-MSH derivative; type: cell-based; details: Mus musculus, B16 cells, 72 hours, read-out: % inhibition of melanin +/− standard deviation
Protocol: Determination of the percentage inhibition of melanin production by the hydroxytyrosol dihydrosinapate of the invention of formula (IIa) or the ferulic acid derivative of the prior art, by quantitative analysis of the total melanin synthesized by melanocytes of murine line B16 following application of the compound under test.
Melanocytes (B16 cells) are cultured for 24 hours in a 96-well plate in an appropriate medium. […] After 72 hours of incubation, the culture medium is withdrawn, and total melanin is quantified by measuring the absorbance at 405 nm against a standard range of synthetic melanin from 0.78 to 100 μg/mL.
The results are expressed as percentage inhibition of melanin production relative to the negative control, and are presented in Table 1.
The inhibitory activity on melanin production of the product tested is calculated as a percentage according to the following formula:
% inhibition=[(mean stimulated control−mean basal control)−(sample value−mean basal control)]/(mean stimulated control−mean basal control)×100
where: • Mean stimulated control: mean of the values obtained with a medium supplemented with an alpha-MSH derivative • Sample value: value obtained with the compound under test • Mean basal control: Mean of the values obtained with a medium not supplemented with an alpha-MSH derivative

Structure (SMILES): COc1cc(CCC(=O)OCCc2ccc(O)c(O)c2)cc(OC)c1O [Hydroxytyrosol dihydrosinapate (IIa), hydroxytyrosol dihydrosinapate]
- % inhibition of the DPPH radical ([1]; 1 μM): 10.7 +/− 0.59%
- % inhibition of the DPPH radical ([1]; 5 μM): 59.68 +/− 0.89%
- % inhibition of the DPPH radical ([1]; 10 μM): 82.01 +/− 1.05%
- % inhibition of the DPPH radical ([1]; 30 μM): 86.68 +/− 0.44%
- % inhibition of the DPPH radical ([1]; 50 μM): 88.78 +/− 0.49%
- % inhibition of the DPPH radical ([1]; 100 μM): 88.28 +/− 0.56%
- % inhibition of the DPPH radical ([1]; 1000 μM): 89.14 +/− 0.40%
- % release of PGE2 after irradiation [2]: 22%
- % inhibition of lipid peroxidation ([3]; 1 μM after dilution to 1/10th in the liposomal suspension): −10.58%
- % inhibition of lipid peroxidation ([3]; 5 μM after dilution to 1/10th in the liposomal suspension): 8.21%
- % inhibition of lipid peroxidation ([3]; 30 μM after dilution to 1/10th in the liposomal suspension): 7.14%
- % inhibition of lipid peroxidation ([3]; 50 μM after dilution to 1/10th in the liposomal suspension): 19.12%
- % inhibition of lipid peroxidation ([3]; 100 μM after dilution to 1/10th in the liposomal suspension): 41.95%
- % inhibition of lipid peroxidation ([3]; 1000 μM after dilution to 1/10th in the liposomal suspension): 77.04%
- Percentage cell viability, Mean ([4]; 1 μM): 105.8%
- Percentage cell viability, Mean ([4]; 10 μM): 115.2%
- Percentage cell viability, Mean ([4]; 100 μM): 75.7%
- cytotoxicity (in words) ([4]; 10^−6, 10^−5 and 10^−4 M, tolerated threshold 75% viability): not cytotoxic
- inhibition at 10 µM ([5]; 10 μM): 75%
- inhibition at 30 µM ([5]; 30 μM): 106%
- inhibition at 50 µM ([5]; 50 μM): 115%
